Measured values published in publication PMC8967249, “Discovery of Novel HPK1 Inhibitors Through Structure-Based Virtual Screening” (Frontiers in Pharmacology, 2022).
Like-named read-outs stand apart in the source and are kept apart here. One block for each compound: values may come before it.

What was measured:
[1] = biological target: T1, HPK1 kinase (Homo sapiens, UniProt Q92918); assay: In vitro HPK1 kinase inhibition assay (Caliper mobility shift assay); settings: for inhibition at 50 µM: read-out: Inhibition (%) 50 μM, 50 μM, duplicate, mean ± SD
T1 sequence (Q92918 whole entry): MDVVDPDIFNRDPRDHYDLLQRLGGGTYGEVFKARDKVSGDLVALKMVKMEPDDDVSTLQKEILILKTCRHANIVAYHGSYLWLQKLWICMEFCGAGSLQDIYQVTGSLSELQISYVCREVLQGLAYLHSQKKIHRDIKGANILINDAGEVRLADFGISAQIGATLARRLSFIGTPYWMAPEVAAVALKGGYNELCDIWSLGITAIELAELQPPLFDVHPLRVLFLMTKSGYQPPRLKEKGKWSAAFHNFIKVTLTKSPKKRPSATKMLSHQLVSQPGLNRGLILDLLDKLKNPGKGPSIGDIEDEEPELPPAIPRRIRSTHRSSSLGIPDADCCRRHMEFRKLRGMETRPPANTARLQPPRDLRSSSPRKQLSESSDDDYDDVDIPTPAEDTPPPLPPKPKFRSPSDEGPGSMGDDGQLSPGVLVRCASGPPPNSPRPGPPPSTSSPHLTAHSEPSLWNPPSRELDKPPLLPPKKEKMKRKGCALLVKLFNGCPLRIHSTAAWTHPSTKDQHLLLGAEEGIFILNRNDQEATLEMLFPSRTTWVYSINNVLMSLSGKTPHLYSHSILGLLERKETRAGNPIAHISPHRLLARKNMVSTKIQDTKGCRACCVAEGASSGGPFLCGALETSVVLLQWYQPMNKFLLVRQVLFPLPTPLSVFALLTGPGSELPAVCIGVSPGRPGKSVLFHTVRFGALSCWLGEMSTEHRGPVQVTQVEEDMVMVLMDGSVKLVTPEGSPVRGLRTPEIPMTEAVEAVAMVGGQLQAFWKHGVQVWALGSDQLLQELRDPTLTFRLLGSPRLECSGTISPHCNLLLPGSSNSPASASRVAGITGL
Description: The mixture was centrifuged at 1,000 rpm for 30 s and then mixed and incubated at room temperature for 10 min. […] The plate was incubated at room temperature for 2 h. Finally, 30 μL terminated buffer was added to terminate the kinase reaction. Conversion rate data were read with Caliper EZ ReaderⅡ. The IC50 values of concentration-dependent curves were fitted by GraphPad Prism 6.0.

[2] = test system: HPK1; parameters: method as in Wu et al. (2019); settings: ref Wu et al. (2019); cited from earlier work
[3] = biological target: WT HPK1 kinase; parameters: method as in Johnson et al. (2019); settings: WT HPK1 kinase in vitro; ref Johnson et al. (2019); read-out: inhibition constant (Ki); cited from earlier work
[4] = test system: SLP76; parameters: method as in Yu et al. (2021); settings: SLP76 PBMC assay; ref Yu et al. (2021); cited from earlier work
[5] = biological target: T1, HPK1 kinase; parameters: purchased Invitrogen PV6357; method as in Yu et al. (2021); settings: ref Yu et al. (2021); cited from earlier work

IC50 [1]: 9590 ± 460 nM
SMILES: O=C1Nc2ccc(Cl)cc2/C1=N/NC(=O)c1cc(Br)ccc1O [2395-0114]

IC50 [1]: 7550 ± 560 nM
inhibition at 50 µM [1]: > 60%
SMILES: Cc1cccc(NC(=O)c2n[nH]c3ccccc23)c1 [8016-1815]

SMILES: CC(C)n1ncc2cnc(Nc3cc(C4CCNC4)nc(N4CCC(F)(F)C4)n3)cc21 (centres unmarked) [GNE-1858]
IC50 [2]: 1.9 nM

IC50 [1]: 2930 ± 90 nM
SMILES: O=C1CCc2cc(NC(=O)c3n[nH]c4ccccc34)ccc2N1 [M074-2865]

SMILES: CCN(CC)CCNC(=O)c1c(C)[nH]c(/C=C2\C(=O)Nc3ccc(F)cc32)c1C [Sunitinib]
Ki [3]: ~10 nM

IC50 [1]: 14300 ± 1070 nM
inhibition at 50 µM [1]: > 60%
SMILES: CCCC[C@@H](CC)CNC(=O)c1ccc(N/N=C2\C(=O)Nc3ccccc32)cc1 [V014-4726]

IC50 [1]: 9490 ± 540 nM
SMILES: Cc1cc(C)c2c(c1)/C(=N/Nc1ccc(C(=O)N3CCC[C@@H]3C)cc1)C(=O)N2 [V030-2005]

SMILES: COc1cccc(F)c1-c1cc2c(cn1)cnn2-c1cccc(N2CCN(C)CC2)n1 [XHS]
IC50 [4]: 600 nM
IC50 [5]: 2.6 nM
